Assay results as given in ChEMBL document CHEMBL1133315, “Human beta3-adrenergic receptor agonists containing 1,2,3-triazole-substituted benzenesulfonamides” (Bioorg Med Chem Lett, 2000).

Tests used:
[1] = molecular target: T1, Beta-3 adrenergic receptor (Homo sapiens, UniProt P13945); experiment: Tested in vitro for its ability to stimulate increase in cAMP in CHO cells expressing the cloned human beta-3 adrenergic receptor; assay type: functional, cell-based
Target sequence in this assay (P13945 whole entry): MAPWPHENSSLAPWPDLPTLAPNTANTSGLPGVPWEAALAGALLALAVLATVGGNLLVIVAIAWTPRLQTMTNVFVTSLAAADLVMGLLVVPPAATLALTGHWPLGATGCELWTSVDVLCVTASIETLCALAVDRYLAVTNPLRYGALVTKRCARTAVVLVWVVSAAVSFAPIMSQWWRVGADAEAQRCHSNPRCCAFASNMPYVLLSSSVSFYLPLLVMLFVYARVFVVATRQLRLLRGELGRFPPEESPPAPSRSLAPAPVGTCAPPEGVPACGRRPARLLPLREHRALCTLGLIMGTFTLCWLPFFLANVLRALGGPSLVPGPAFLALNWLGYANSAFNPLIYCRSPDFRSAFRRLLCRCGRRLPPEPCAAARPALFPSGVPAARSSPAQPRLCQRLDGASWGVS

[2] = molecular target: T1, Beta-3 adrenergic receptor; experiment: Tested for Beta3 adrenergic receptor agonist activity by its ability to stimulate adenylyl cyclase activation as % of the maximal stimulation with isoproterenol; assay type: functional
Target sequence in this assay (P13945 whole entry, looked up): as the sequence (P13945 whole entry) above

[3] = molecular target: Beta-2 adrenergic receptor (Homo sapiens, UniProt P07550); experiment: Binding affinity for clone human Beta-2 adrenergic receptor from CHO cell membranes in the presence of I-iodocyanopindolol
Sequence of Beta-2 adrenergic receptor (P07550 whole entry): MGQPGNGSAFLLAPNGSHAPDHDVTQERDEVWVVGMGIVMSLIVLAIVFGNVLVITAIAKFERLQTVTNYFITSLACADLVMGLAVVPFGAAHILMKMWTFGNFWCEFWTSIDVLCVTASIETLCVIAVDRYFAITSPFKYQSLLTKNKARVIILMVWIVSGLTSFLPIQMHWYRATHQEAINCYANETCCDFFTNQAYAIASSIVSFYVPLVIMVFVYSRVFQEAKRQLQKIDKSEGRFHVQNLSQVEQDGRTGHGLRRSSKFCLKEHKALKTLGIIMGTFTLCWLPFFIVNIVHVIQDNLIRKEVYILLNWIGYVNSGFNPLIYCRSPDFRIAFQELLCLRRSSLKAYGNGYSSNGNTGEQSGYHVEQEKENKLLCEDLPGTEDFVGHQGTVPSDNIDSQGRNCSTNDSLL

[4] = molecular target: Beta-1 adrenergic receptor (Homo sapiens, UniProt P08588); experiment: Binding affinity for cloned human Beta-1 adrenergic receptor expressed in CHO cells, tested in the presence of I-iodocyanopindolol.; assay type: cell-based
Sequence of Beta-1 adrenergic receptor (P08588 whole entry): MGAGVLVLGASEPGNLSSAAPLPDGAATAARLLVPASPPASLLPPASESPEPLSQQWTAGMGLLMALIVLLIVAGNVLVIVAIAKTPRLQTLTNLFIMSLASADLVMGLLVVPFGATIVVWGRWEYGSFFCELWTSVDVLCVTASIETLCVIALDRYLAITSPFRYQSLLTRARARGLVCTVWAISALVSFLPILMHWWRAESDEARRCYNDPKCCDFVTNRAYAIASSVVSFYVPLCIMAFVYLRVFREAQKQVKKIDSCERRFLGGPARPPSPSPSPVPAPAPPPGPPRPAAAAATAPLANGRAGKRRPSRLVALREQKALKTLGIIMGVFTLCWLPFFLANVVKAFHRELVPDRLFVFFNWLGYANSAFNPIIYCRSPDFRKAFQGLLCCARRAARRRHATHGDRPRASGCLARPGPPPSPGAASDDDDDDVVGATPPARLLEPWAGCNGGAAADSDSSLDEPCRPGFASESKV

[5] = Oral bioavailability in dog; assay type: ADME, organism-based, Canis lupus familiaris; conditions: in vivo
Monkey [6] = experiment: Effective dose that produced hyperglycerolemia in anesthetized rhesus monkeys; assay type: functional; conditions: Cercopithecidae, in Macaca mulatta
[7] = The compound was tested for half life in dog; assay type: ADME, organism-based, Canis lupus familiaris; conditions: in vivo
Monkey [8] = experiment: Compound was tested for separation between lipolytic potency and tachycardia, as heart rate, effect was determined at highest dose of 10 mg/kg in rhesus monkeys; assay type: functional, Cercopithecidae
[9] = The half life was determined; assay type: ADME, organism-based, Canis lupus familiaris; conditions: dog, in vivo

| SMILES | EC50 [1] [nM] | Activation [2] [%] | IC50 [3] [nM] | IC50 [4] [nM] | bioavailability [5] [%] | ED50 (Monkey [6]) [mg/kg] | half-life [7] [h] | bioavailability ([5]; read-out: Activity) [%] | Heart rate (Monkey [8]) [%] | half-life [9] [h] |
| --- | --- | --- | --- | --- | --- | --- | --- | --- | --- | --- |
| O=S(=O)(Nc1ccc(CCNC[C@H](O)c2cccnc2)cc1)c1ccc(-n2ncc(Cc3c(F)cccc3F)n2)cc1 | 24 | 84 | 5000 | 28000 |  |  |  |  |  |  |
| O=S(=O)(Nc1ccc(CCNC[C@H](O)c2cccnc2)cc1)c1ccc(-n2ncc(-c3ccc(F)cc3)n2)cc1 | 24 | 91 | 9300 | 40000 |  |  |  |  |  |  |
| O=S(=O)(Nc1ccc(CCNC[C@H](O)c2cccnc2)cc1)c1ccc(-n2ncc(COc3ccc(OC(F)(F)F)cc3)n2)cc1 | 14 | 75 | 620 | 6200 |  |  |  |  |  |  |
| O=S(=O)(Nc1ccc(CCNC[C@H](O)c2cccnc2)cc1)c1ccc(-n2ncc(Cc3c(F)cc(F)cc3F)n2)cc1 | 48 | 83 | 8800 | 10000 |  |  |  |  |  |  |
| O=C(c1ccc(F)cc1)c1cnn(-c2ccc(S(=O)(=O)Nc3ccc(CCNC[C@H](O)c4cccnc4)cc3)cc2)n1 | 6.4 |  |  |  |  |  |  |  |  |  |
| O=S(=O)(Nc1ccc(CCNC[C@H](O)c2cccnc2)cc1)c1ccc(-n2ncc(-c3cccc(F)c3)n2)cc1 | 52 | 89 | 8800 | 8700 |  |  |  |  |  |  |
| O=S(=O)(Nc1ccc(CCNC[C@H](O)c2cccnc2)cc1)c1ccc(-n2ncc(Cc3cccc(F)c3)n2)cc1 | 6.4 | 87 | 380 | 3000 |  |  |  |  |  |  |
| COc1ccc(-c2cnn(-c3ccc(S(=O)(=O)Nc4ccc(CCNC[C@H](O)c5cccnc5)cc4)cc3)n2)cc1F | 22 | 80 | 2500 | 5600 |  |  |  |  |  |  |
| O=S(=O)(Nc1ccc(CCNC[C@H](O)c2cccnc2)cc1)c1ccc(-n2ncc(-c3ccc(OC(F)(F)F)cc3)n2)cc1 | 18 | 84 | 1600 | 1300 |  |  |  |  |  |  |
| CCCCCCNC(=O)Nc1ccc(S(=O)(=O)Nc2ccc(CCNC[C@H](O)c3cccnc3)cc2)cc1 |  |  |  |  | < 1 |  |  |  |  |  |
| O=S(=O)(Nc1ccc(CCNC[C@H](O)c2cccnc2)cc1)c1ccc(-n2ncc(COc3ccc(C(F)(F)F)cc3)n2)cc1 | 11 | 72 | 730 | 920 |  |  |  |  |  |  |
| O=S(=O)(Nc1ccc(CCNC[C@H](O)c2cccnc2)cc1)c1ccc(-n2ncc(Cc3ccc(F)cc3)n2)cc1 | 14 | 75 | 780 | 2500 |  |  |  |  |  |  |
| O=S(=O)(Nc1ccc(CCNC[C@H](O)c2cccnc2)cc1)c1ccc(-n2ncc(Cc3ccc(C(F)(F)F)cc3)n2)cc1 | 3.1 | 85 | 4700 | 20000 |  | 0.36 | 6 | 25 | <5 |  |
| O=S(=O)(Nc1ccc(CCNC[C@H](O)c2cccnc2)cc1)c1ccc(-n2ncc(-c3ccc(C(F)(F)F)cc3)n2)cc1 | 14 | 90 | 21000 | 21000 | 18 |  |  |  |  | 15 |
| O=S(=O)(Nc1ccc(CCNC[C@H](O)c2cccnc2)cc1)c1ccc(-n2ncc(C(O)c3ccc(F)cc3)n2)cc1 (stereo partly specified) | 3.3 |  |  |  |  |  |  |  |  |  |
| O=S(=O)(Nc1ccc(CCNC[C@H](O)c2cccnc2)cc1)c1ccc(-n2ncc(-c3ccc(F)c(F)c3)n2)cc1 | 14 | 82 | 1300 | 2600 |  |  |  |  |  |  |
| O=S(=O)(Nc1ccc(CCNC[C@H](O)c2cccnc2)cc1)c1ccc(-n2ncc(Cc3ccc(OC(F)(F)F)cc3)n2)cc1 | 4.1 | 91 | 860 | 2600 |  |  |  |  |  |  |
| O=S(=O)(Nc1ccc(CCNC[C@H](O)c2cccnc2)cc1)c1ccc(-n2ncc(Cc3ccc(F)c(F)c3)n2)cc1 | 7.2 | 86 | 1000 | 2000 |  |  |  | 38 |  | 4 |
| CCCCCCn1ccn(-c2ccc(S(=O)(=O)Nc3ccc(CCNC[C@H](O)c4cccnc4)cc3)cc2)c1=O [L-764646] |  |  |  |  | 7 |  |  |  |  |  |
| O=S(=O)(Nc1ccc(CCNC[C@H](O)c2cccnc2)cc1)c1ccc(-n2ncc(COc3ccc(F)c(F)c3)n2)cc1 | 10 | 63 | 690 | 930 |  |  |  |  |  |  |
